Patent US20230219912A1, “HALOGENATED BENZOTHIADIAZINES FOR THE TREATMENT OF CANCER” (BOARD OF REGENTS OF THE UNIVERSITY OF NEBRASKA, priority 2020, published 2023)
“And” between values parts separate entries of the source, which are not always exact repeats. Identical values can stand only once.

Tests used:
[1] = tested on: VEGF-induced proliferation of HUVEC cells; experiment: VEGF-induced HUVEC proliferation, MTT assay; format: cell-based, human; conditions: Homo sapiens, HUVEC, 48 h, 20 μM compound, VEGF 10 ng/mL, HUVEC, 48 h; relative to VEGF treated cells; mean ± SEM n = 3; read-out: % Inhibition of Proliferation
Procedure, shortened: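 HUVECs starved 24 h in 0.1% BSA/0.1% FBS basal medium, then treated 48 h with VEGF (10 ng/mL) alone or with compounds at 20 μM (DMSO <1%). Proliferation by MTT (2 h, 37° C), formazan dissolved in acidified isopropanol, absorbance at 570 nm.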

[2] = tested on: breast cancer; conditions: 200-300 mg per day, cited from earlier work
[3] = tested on: MCF-7 breast cancer cells; conditions: cited from earlier work
[4] = target: T1, Mitochondrial respiratory complex II (CII) (Rattus norvegicus, UniProt P21913+Q641Z9+Q6PCT8+Q920L2); conditions: rat heart mitochondria, literature; cited from earlier work
T1 construct: host or cells: rat heart mitochondria

[5] = target: T2, Mitochondrial respiratory complex II (Rattus norvegicus, UniProt P21913+Q641Z9+Q6PCT8+Q920L2); experiment: Mitochondrial respiratory complex II inhibition assay; format: biochemical
T2 construct: measured spectrophotometrically using isolated rat heart mitochondria; from tissue; host or cells: rat heart mitochondria / sub-mitochondrial particles
Procedure, shortened: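 Rat heart mitochondria or sub-mitochondrial particles in phosphate buffer pH 7.4 with 40 μM DCPIP, 1 mM KCN, 10 μM rotenone and 50 μM co-enzyme Q2.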

T2 sequence (Q920L2 35-656): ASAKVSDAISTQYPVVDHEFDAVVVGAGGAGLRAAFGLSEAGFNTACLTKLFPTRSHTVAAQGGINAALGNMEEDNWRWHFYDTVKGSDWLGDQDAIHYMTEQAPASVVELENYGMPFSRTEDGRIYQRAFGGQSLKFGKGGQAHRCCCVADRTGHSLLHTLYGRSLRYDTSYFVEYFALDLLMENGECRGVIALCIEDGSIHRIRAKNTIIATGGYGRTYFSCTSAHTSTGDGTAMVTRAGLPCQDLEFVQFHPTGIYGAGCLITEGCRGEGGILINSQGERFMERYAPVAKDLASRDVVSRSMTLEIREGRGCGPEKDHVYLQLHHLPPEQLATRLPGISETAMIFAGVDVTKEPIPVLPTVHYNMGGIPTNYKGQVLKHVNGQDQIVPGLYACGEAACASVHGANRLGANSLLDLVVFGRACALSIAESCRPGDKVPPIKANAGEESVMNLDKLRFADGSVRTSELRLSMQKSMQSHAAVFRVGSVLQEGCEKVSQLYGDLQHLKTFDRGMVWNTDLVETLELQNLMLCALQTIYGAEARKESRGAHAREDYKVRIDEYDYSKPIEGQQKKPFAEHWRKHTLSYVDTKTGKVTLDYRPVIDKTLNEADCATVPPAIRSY
T2 sequence (P21913 31-282): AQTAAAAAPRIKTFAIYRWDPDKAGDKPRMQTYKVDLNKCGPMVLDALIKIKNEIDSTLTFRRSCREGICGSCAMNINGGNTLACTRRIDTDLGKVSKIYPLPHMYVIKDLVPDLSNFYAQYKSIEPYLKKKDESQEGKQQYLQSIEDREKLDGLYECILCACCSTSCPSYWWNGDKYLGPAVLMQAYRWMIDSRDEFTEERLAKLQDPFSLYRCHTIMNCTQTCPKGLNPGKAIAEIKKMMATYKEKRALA
T2 sequence (Q641Z9 1-169): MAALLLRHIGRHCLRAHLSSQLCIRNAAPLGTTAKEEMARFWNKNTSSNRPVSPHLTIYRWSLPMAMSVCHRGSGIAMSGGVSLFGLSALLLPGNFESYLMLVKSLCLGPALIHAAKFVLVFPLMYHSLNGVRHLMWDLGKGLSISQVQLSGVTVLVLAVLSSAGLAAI
T2 sequence (Q6PCT8 57-159): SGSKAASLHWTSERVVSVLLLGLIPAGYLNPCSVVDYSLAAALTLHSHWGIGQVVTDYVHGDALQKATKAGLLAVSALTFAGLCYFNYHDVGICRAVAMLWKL
T1 sequence (Q920L2 35-656): as the sequence (Q920L2 35-656) above
T1 sequence (P21913 31-282): as the sequence (P21913 31-282) above
T1 sequence (Q641Z9 30-169 limits assumed): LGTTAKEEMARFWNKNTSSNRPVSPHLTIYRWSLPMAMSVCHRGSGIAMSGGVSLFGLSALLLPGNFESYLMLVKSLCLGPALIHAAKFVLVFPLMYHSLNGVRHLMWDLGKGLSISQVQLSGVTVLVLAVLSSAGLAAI
T1 sequence (Q6PCT8 57-159): as the sequence (Q6PCT8 57-159) above

## CC1=Nc2ccc(Cl)cc2S(=O)(=O)N1 [Diazoxide, 7-chloro-3-methyl-2H-1,2,4-benzothiadiazine 1,1-dioxide, reference compound]
[1]
  inhibition at 20 µM: 15 ± 20%
[2]; nine patients
  response rate: 33%
[2]
  duration of stable disease: 4-8 months
[3]
  IC50: 130 µM
[4]
  IC50: 32 µM
[5]; 100 μM, relative to DMSO control
  inhibition of CII: no CII inhibition activity
[5]; 100 μM, relative to DMSO control, read-out: inhibition of CII
  inhibition at 100 µM: 9%
[5]; isolated rat heart mitochondria, mean ±SD of n = 4, read-out: CII IC50
  IC50: 1240 µM and > 1000 µM
